Laboratory results reported in patent US9975885B2, “Broad-spectrum non-covalent coronavirus protease inhibitors” (priority 2016, dated 2018).
Marks after values point to notes of the source that are not given here.

Assays:
HKU1-3CL^pro = HKU1-3CL^pro (Human coronavirus HKU1 (isolate N1) (HCoV-HKU1), UniProt P0C6X2); experiment: biochemical
HKU5-3CL^pro = HKU5-3CL^pro (Bat coronavirus HKU5 (BtCoV) (BtCoV/HKU5/2004), UniProt P0C6W4); type: biochemical
[1] = test system: Ten CoV 3CL^pro's (FIPV-, PEDV-, NL63-, HKU1-, OC43-, SARS-, HKU4-, HKU5-, HKU9-, IBV-3CL^pro); type: biochemical, coronaviruses (α-, β-, γ-CoV)
SARS-3CL^pro = SARS-3CL^pro (Severe acute respiratory syndrome coronavirus (SARS-CoV), UniProt P0C6X7); type: biochemical
HKU4-3CL^pro = HKU4-3CL^pro (Bat coronavirus HKU4 (BtCoV) (BtCoV/HKU4/2004), UniProt P0C6W3); type: biochemical
HKU4-3CL^pro, sequence (P0C6W3 3292-3597 limits assumed): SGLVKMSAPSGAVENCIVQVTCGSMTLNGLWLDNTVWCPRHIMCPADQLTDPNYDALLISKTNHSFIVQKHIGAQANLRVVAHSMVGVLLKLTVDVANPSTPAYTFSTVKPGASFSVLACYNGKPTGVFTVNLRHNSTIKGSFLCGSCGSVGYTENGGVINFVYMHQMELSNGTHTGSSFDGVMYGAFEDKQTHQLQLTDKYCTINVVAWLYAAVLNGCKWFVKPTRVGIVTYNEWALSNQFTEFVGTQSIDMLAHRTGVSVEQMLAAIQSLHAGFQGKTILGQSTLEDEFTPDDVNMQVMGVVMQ

OC43-3CL^pro = OC43-3CL^pro (Human coronavirus OC43 (HCoV-OC43), UniProt P0C6X6); type: biochemical
OC43-3CL^pro, sequence (P0C6X6 3247-3549 limits assumed): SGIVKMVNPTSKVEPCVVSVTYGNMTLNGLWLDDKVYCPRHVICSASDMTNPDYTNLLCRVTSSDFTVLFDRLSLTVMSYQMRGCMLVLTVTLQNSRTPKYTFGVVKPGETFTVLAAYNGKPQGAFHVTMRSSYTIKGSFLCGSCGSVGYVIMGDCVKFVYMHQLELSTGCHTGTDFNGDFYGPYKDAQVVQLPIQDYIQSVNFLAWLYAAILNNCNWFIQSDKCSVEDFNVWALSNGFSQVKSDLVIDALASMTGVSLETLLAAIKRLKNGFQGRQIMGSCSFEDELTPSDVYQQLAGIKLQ

NL63-3CL^pro = NL63-3CL^pro (Human coronavirus NL63 (HCoV-NL63), UniProt P0C6X5); experiment: biochemical
NL63-3CL^pro, sequence (P0C6X5 2940-3242 limits assumed): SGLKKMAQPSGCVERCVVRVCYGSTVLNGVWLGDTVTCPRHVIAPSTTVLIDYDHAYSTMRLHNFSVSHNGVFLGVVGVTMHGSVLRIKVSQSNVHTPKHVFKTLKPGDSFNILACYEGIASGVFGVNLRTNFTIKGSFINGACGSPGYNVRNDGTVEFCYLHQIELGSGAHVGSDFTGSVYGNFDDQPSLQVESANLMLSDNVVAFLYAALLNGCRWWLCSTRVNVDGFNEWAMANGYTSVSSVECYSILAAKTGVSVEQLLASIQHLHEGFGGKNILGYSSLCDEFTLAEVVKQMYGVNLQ

PEDV-3CL^pro = PEDV-3CL^pro (Porcine epidemic diarrhea virus (strain CV777) (PEDV), UniProt P0C6Y4); experiment: biochemical
PEDV-3CL^pro, sequence (P0C6Y4 2998-3299 limits assumed): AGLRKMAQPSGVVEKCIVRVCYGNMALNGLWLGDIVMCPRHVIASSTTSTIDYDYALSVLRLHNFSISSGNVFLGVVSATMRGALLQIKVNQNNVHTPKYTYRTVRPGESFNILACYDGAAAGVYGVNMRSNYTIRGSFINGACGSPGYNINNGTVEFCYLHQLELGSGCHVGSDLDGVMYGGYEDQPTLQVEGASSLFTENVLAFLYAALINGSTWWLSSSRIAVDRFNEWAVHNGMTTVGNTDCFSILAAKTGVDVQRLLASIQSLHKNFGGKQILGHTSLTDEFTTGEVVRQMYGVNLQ

HKU1-3CL^pro, sequence (P0C6X2 3335-3637 limits assumed): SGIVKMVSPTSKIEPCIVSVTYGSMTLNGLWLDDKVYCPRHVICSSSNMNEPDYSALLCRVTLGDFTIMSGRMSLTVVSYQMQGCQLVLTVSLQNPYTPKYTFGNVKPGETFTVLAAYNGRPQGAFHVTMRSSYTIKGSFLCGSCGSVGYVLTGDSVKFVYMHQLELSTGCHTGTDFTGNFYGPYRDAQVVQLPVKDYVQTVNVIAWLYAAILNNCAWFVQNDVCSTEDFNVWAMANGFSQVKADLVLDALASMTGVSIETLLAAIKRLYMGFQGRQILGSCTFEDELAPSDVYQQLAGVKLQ
HKU5-3CL^pro, sequence (P0C6W4 3339-3644 limits assumed): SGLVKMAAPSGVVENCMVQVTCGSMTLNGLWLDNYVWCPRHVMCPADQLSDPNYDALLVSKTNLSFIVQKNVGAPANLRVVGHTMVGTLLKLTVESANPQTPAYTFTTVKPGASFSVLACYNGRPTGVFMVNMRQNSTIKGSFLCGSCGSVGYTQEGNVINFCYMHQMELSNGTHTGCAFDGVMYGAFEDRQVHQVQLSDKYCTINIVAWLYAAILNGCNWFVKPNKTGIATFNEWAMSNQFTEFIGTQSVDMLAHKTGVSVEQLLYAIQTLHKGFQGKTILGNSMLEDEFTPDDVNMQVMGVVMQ

SMILES | IC50 (HKU5-3CL^pro) [µM] | Gini Coefficient [1] | Score (performance metric score) [1] | IC50 (SARS-3CL^pro) [µM] | IC50 (HKU4-3CL^pro) [µM] | further results
COc1ccc(C(C(=O)NCc2ccccc2)N(C(=O)Cn2nnc3ccccc32)c2ccc(NC(=O)C(C)C)cc2)cc1 (stereo not shown) [Compound 13, N-(4-(2-(1H-benzo[d][1,2,3]triazol-1-yl)-N-(2-(benzylamino)-1-(4-methoxyphenyl)-2-oxoethyl)acetamido)phenyl)isobutyramide] | 1.3 ± 0.2 | 0.43 | 6.4 | – | – | IC50 (HKU1-3CL^pro): 2.5 ± 0.4 µM
COc1cccc(C(C(=O)NCc2ccccc2)N(C(=O)Cn2nnc3ccccc32)c2ccc(NC(=O)C(C)C)cc2)c1 (stereo not shown) [Compound 14, N-(4-(2-(1H-benzo[d][1,2,3]triazol-1-yl)-N-(2-(benzylamino)-1-(3-methoxyphenyl)-2-oxoethyl)acetamido)phenyl)isobutyramide] | 2.2 ± 0.3 | 0.33 | 6.6 | 3.5 ± 0.4 | 2.4 ± 0.2 | IC50 SARS (SARS-3CL^pro): low micromolar; IC50 HKU4 (HKU4-3CL^pro): low micromolar; IC50 (HKU1-3CL^pro): 1.8 ± 0.3 µM; IC50 HKU1 (HKU1-3CL^pro): low micromolar; IC50 HKU5 (HKU5-3CL^pro): low micromolar
CC(C)C(=O)Nc1ccc(N(C(=O)Cn2nnc3ccccc32)C(C(=O)NCc2ccccc2)c2cccnc2)cc1 (stereo not shown) [Compound 15, N-(4-(2-(1H-benzo[d][1,2,3]triazol-1-yl)-N-(2-(benzylamino)-2-oxo-1-(pyridin-3-yl)ethyl)acetamido)phenyl)isobutyramide] | 9.6 ± 1.2 | 0.48 | 9.7 | 10.9 ± 1.9 | 4 ± 0.4 | –
CC(C)C(=O)Nc1ccc(N(C(=O)Cn2cnc3ccccc32)C(C(=O)NCc2ccccc2)c2cccc(F)c2)cc1 (stereo not shown) [Compound 19, N-(4-(2-(1H-benzo[d]imidazol-1-yl)-N-(2-(benzylamino)-1-(3-fluorophenyl)-2-oxoethyl)acetamido)phenyl)isobutyramide] | 2.9 ± 0.3 | 0.31 | 6.8 | – | 2.5 ± 0.2 | IC50 (HKU1-3CL^pro): 3.7 ± 0.6 µM; IC50 (OC43-3CL^pro): 3.9 ± 0.4 µM
CC(C)(C)NC(=O)C(c1ccsc1)N(C(=O)Cn1cnc2ccccc21)c1ccc(NC(=O)C2CC2)cc1 (stereo not shown) [Compound 27, N-(4-(2-(1H-benzo[d]imidazol-1-yl)-N-(2-(tert-butylamino)-2-oxo-1-(thiophen-3-yl)ethyl)acetamido)phenyl)cyclopropanecarboxamide] | 9.7 ± 1.6 | 0.37 | 11.0 | – | 9.6 ± 1 | IC50 (OC43-3CL^pro): 16.3 ± 2.1 µM
CC(C)NC(=O)C(c1ccsc1)N(C(=O)Cn1nnc2ccccc21)c1ccc(NC(=O)C2CC2)cc1 (stereo not shown) [Compound 29, N-(4-(2-(1H-benzo[d][1,2,3]triazol-1-yl)-N-(2-(isopropylamino)-2-oxo-1-(thiophen-3-yl)ethyl)acetamido)phenyl)cyclopropanecarboxamide] | 2.4 ± 0.3 | – | 6.3* | 8.3 ± 1.5 | 2 ± 0.2 | IC50 (NL63-3CL^pro): 8.1 ± 1.6 µM; IC50 (OC43-3CL^pro): 11.1 ± 1.2 µM
O=C(Nc1ccc(N(C(=O)Cn2nnc3ccccc32)C(C(=O)NC2CC2)c2ccsc2)cc1)C1CC1 (stereo not shown) [Compound 32, N-(4-(2-(1H-benzo[d][1,2,3]triazol-1-yl)-N-(2-(cyclopropylamino)-2-oxo-1-(thiophen-3-yl)ethyl)acetamido)phenyl)cyclopropanecarboxamide] | 0.9 ± 0.1 | – | 5.0* | 8.2 ± 1.5 | 0.8 ± 0.1 | IC50 (HKU1-3CL^pro): 9.8 ± 1.8 µM; IC50 (NL63-3CL^pro): 14.8 ± 1.2 µM; IC50 (OC43-3CL^pro): 2.8 ± 0.2 µM; number of 3CL^pro's inhibited [1]: six
O=C(Nc1ccc(N(C(=O)Cn2nnc3ccccc32)C(C(=O)NC2CCCC2)c2ccsc2)cc1)C1CC1 (stereo not shown) [Compound 33, N-(4-(2-(1H-benzo[d][1,2,3]triazol-1-yl)-N-(2-(cyclopentylamino)-2-oxo-1-(thiophen-3-yl)ethyl)acetamido)phenyl)cyclopropanecarboxamide] | 0.6 ± 0.1 | 0.32 | 5.7* | 4.2 ± 0.6 | 0.5 ± 0.05 | inhibition of HKU1-3CL^pro (HKU1-3CL^pro): not tolerated; IC50 (NL63-3CL^pro): 3.7 ± 0.6 µM; IC50 (OC43-3CL^pro): 7.3 ± 0.8 µM
O=C(Nc1ccc(N(C(=O)Cn2nnc3ccccc32)C(C(=O)NCc2ccccc2)c2ccsc2)cc1)C1CC1 (stereo not shown) [Compound 37, N-(4-(2-(1H-benzo[d][1,2,3]triazol-1-yl)-N-(2-(benzylamino)-2-oxo-1-(thiophen-3-yl)ethyl)acetamido)phenyl)cyclopropanecarboxamide] | 0.8 ± 0.1 | – | 5.3* | 2 ± 0.2 | 0.6 ± 0.04 | IC50 (NL63-3CL^pro): 3 ± 0.3 µM; IC50 (OC43-3CL^pro): 2.2 ± 0.2 µM
CC(C)(C)NC(=O)C(c1cccnc1)N(C(=O)c1c[nH]cn1)c1ccc(C2CC2)cc1 (stereo not shown) [Compound 39, N-(2-(tert-butylamino)-2-oxo-1-(pyridin-3-yl)ethyl)-N-(4-cyclopropylphenyl)-1H-imidazole-4-carboxamide] | 15.7 ± 2 | 0.19 | 7.6 | 12.7 ± 2.5 | 16.6 ± 1.7 | IC50 (PEDV-3CL^pro): 17.6 ± 2.6 µM; IC50 (HKU1-3CL^pro): 2 ± 1.1 µM; number of 3CL^pro's inhibited [1]: five out of ten
CC(C)C(=O)Nc1ccc(N(C(=O)Cn2nnc3ccccc32)C(C(=O)NCc2ccccc2)c2ccc(OCCCN(C)C)cc2)cc1 (stereo not shown) [Compound 54, N-(4-(2-(1H-benzo[d][1,2,3]triazol-1-yl)-N-(2-(benzylamino)-1-(4-(3-(dimethylamino)propoxy)phenyl)-2-oxoethyl)acetamido)phenyl)isobutyramide] | – | 0.59 | 19.8 | 27.3 ± 4.6 | – | IC50 (HKU1-3CL^pro): 20 ± 2.9 µM
CC(C)C(=O)Nc1ccc(N(C(=O)Cn2nnc3ccccc32)C(C(=O)NCc2ccccc2)c2ccc(Cl)c(F)c2)cc1 (stereo not shown) [Compound 55, N-(4-(2-(1H-benzo[d][1,2,3]triazol-1-yl)-N-(2-(benzylamino)-1-(4-chloro-3-fluorophenyl)-2-oxoethyl)acetamido)phenyl)isobutyramide] | – | 0.50 | 9.8 | 0.8 ± 0.1 | – | –
Cc1nccn1CCC(=O)N(c1ccc(NC(=O)C(C)C)cc1)C(C(=O)NCc1ccccc1)c1cccc(F)c1 (stereo not shown) [Compound 59, N-(2-(benzylamino)-1-(3-fluorophenyl)-2-oxoethyl)-N-(4-isobutyramidophenyl)-3-(2-methyl-1H-imidazol-1-yl)propanamide] | – | 0.44 | – | – | – | –
CC(C)(C)NC(=O)C(c1ccsc1)N(C(=O)C1CCN(C(=O)OC(C)(C)C)CC1)c1ccc(NC(=O)C2CC2)cc1 (stereo not shown) [Compound 60, tert-butyl 4-((2-(tert-butylamino)-2-oxo-1-(thiophen-3-yl)ethyl)(4-(cyclopropanecarboxamido)phenyl)carbamoyl)piperidine-1-carboxylate] | – | 0.60 | – | – | – | inhibition of any 3CL^pro [1]: ≤ 50%
Cc1cccc2c(CC(=O)N(c3ccc(NC(=O)C4CC4)cc3)C(C(=O)NC(C)(C)C)c3ccsc3)c[nH]c12 (stereo not shown) [Compound 61, N-(4-(N-(2-(tert-butylamino)-2-oxo-1-(thiophen-3-yl)ethyl)-2-(7-methyl-1H-indol-3-yl)acetamido)phenyl)cyclopropanecarboxamide] | – | 0.43 | – | – | – | inhibition of any 3CL^pro [1]: ≤ 50%
CC(C)(C)NC(=O)C(c1ccsc1)N(C(=O)CCc1nc2ccccc2[nH]1)c1ccc(NC(=O)C2CC2)cc1 (stereo not shown) [Compound 62, N-(4-(3-(1H-benzo[d]imidazol-2-yl)-N-(2-(tert-butylamino)-2-oxo-1-(thiophen-3-yl)ethyl)propanamido)phenyl)cyclopropanecarboxamide] | – | 0.46 | – | – | – | inhibition of any 3CL^pro [1]: ≤ 50%
Cc1nccn1CCC(=O)N(c1ccc(NC(=O)C2CC2)cc1)C(C(=O)NC(C)(C)C)c1ccsc1 (stereo not shown) [Compound 63, N-(4-(N-(2-(tert-butylamino)-2-oxo-1-(thiophen-3-yl)ethyl)-3-(2-methyl-1H-imidazol-1-yl)propanamido)phenyl)cyclopropanecarboxamide] | – | 0.44 | – | – | – | inhibition of any 3CL^pro [1]: ≤ 50%
O=C(Nc1ccc(N(C(=O)Cn2nnc3ccccc32)C(C(=O)NC2CCCCC2)c2ccsc2)cc1)C1CC1 (stereo not shown) [Compound 67, N-(4-(2-(1H-benzo[d][1,2,3]triazol-1-yl)-N-(2-(cyclohexylamino)-2-oxo-1-(thiophen-3-yl)ethyl)acetamido)phenyl)cyclopropanecarboxamide] | 0.6 ± 0.1 | 0.39 | 8.3* | – | 0.7 ± 0.1 | inhibition of SARS-3CL^pro (SARS-3CL^pro): not tolerated; IC50 HKU4 (HKU4-3CL^pro): sub-micromolar; inhibition of NL63-3CL^pro (NL63-3CL^pro): not tolerated; IC50 HKU5 (HKU5-3CL^pro): sub-micromolar; inhibition of OC43-3CL^pro (OC43-3CL^pro): not tolerated
COc1cc(N(C(=O)c2c[nH]cn2)C(C(=O)NC(C)(C)C)c2cccnc2)cc(OC)c1OC (stereo not shown) [Compound 69, N-(2-(tert-butylamino)-2-oxo-1-(pyridin-3-yl)ethyl)-N-(3,4,5-trimethoxyphenyl)-1H-imidazole-4-carboxamide] | – | 0.45 | – | – | – | –
Cc1cc(N(C(=O)c2c[nH]cn2)C(C(=O)NC(C)(C)C)c2cccnc2)ccc1Cl (stereo not shown) [Compound 70, N-(2-(tert-butylamino)-2-oxo-1-(pyridin-3-yl)ethyl)-N-(4-chloro-3-methylphenyl)-1H-imidazole-4-carboxamide] | – | 0.33 | – | – | – | –
CC(C)(C)NC(=O)C(c1cccnc1)N(C(=O)c1c[nH]cn1)c1cccc(C(C)(C)C)c1 (stereo not shown) [Compound 71] | – | 0.30 | – | – | – | –
